This is an account of results in PubChem BioAssay (NCI).

Several values for one entry are separate records, joined by “and”; a condition that tells them apart may be missing. Identical values can stand only once.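 How tested: cells in 96-well plates exposed to compound for 48 hours at five concentrations. GI50 marks 50% less growth. TGI: concentration producing complete growth inhibition.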

Holding throughout (test): NCI-60 cell line screen, 48 h
Test [1] relates to HCT-15 colon.
Test [2] deals with HOP-62 NSCLC.
In test [3] the test system is LOX IMVI melanoma.
Test [4] relates to NCI/ADR-RES ovarian.
For test [5], the system named is OVCAR-4 ovarian.
Test [6] deals with RPMI-8226 leukemia.
Test [7] relates to SF-295 CNS.
Test [8] concerns SK-MEL-2 melanoma.
Test [9] concerns SK-MEL-28 melanoma.
For test [10], the system named is SN12C renal.

For `Cn1cnc([N+](=O)[O-])c1Sc1ncn[nH]1`, the GI50 in test [1] is 70.1 µM; in test [2] it was above 100 µM; in [3], above 100 µM; in test [4], above 100 µM; in test [5], 72 µM; in [6] it was 43.9 µM. Moreover, the GI50 in [7] was above 100 µM; in test [8], 40.9 µM; in test [9] it was above 100 µM; in [10], above 100 µM. The TGI in test [1], in test [2], in test [3], in test [4], in test [5] and in [6] was above 100 µM throughout. Moreover, the TGI in test [7], in test [8], in test [9] and in test [10] was above 100 µM throughout.
With `CCOC(=O)c1c(C)c(C)n2c1NC(=O)C2`, the TGI in [1] was above 100 µM; in test [2], above 100 µM; in test [3] it was above 100 µM; in test [4], 81.5 µM; in test [5], above 100 µM; in [6], above 100 µM. Moreover, the TGI in test [7], in test [8], in [9] and in test [10] was above 100 µM throughout.
With `O=S(=O)(NCCNc1nccc(-c2c(-c3ccc(F)cc3)nc3sccn23)n1)c1ccccc1`, the GI50 is 3.07 µM in test [1]; 26.4 µM in test [2]; 3.41 µM in test [3]; 5.6 µM in test [4]; 5.6 µM in [5]; 3.79 µM in test [6]. The GI50 is 7.64 µM in test [7], 7.5 µM in test [8], 9.36 µM in [9] and 6.86 µM in test [10]. The TGI was above 100 µM in test [1]; above 100 µM in test [2]; 93.1 µM in test [3]; above 100 µM in test [4]; above 100 µM in test [5]; 33 µM in [6]. Further, the TGI in test [7] is 34.2 µM; in test [8] it was 26.6 µM; in test [9], above 100 µM; in test [10], above 100 µM.
As to `CCN(CC)CCOc1ccc(C(=O)/C=C\c2ccc(Cl)cc2Cl)cc1`, the GI50 in test [1] is 2.15 µM; in test [2], 11 µM; in test [3], 1.78 µM; in test [4], 9.91 µM; in test [5] it was 3.82 µM; in test [6], 1.94 µM. The GI50 is 8.7 µM in test [7], 15 µM in test [8], 2.55 µM in test [9] and 6.52 µM in test [10]. Besides, the TGI was 5.16 µM in [1]; 24.9 µM in test [2]; 3.6 µM in [3]; 23.3 µM in test [4]; 16.6 µM in test [5]; 6.34 µM in test [6]. The TGI was 22.3 µM in test [7], 28.5 µM in [8], 7.75 µM in [9] and 21.9 µM in [10].
As to `CNC(=O)OCC1C2=C(C(=O)C(C)=C(N)C2=O)N2CC3C(N3C)C12OC` (centres undefined), the TGI in [1] is 27 µM; in [2] it was above 100 µM; in [3] it was 33.9 µM; in test [4] it was above 100 µM; in test [5], 33 µM; in test [6], above 100 µM. In addition, the TGI in test [7] is 67 µM; in [8] it was 55.7 µM; in test [9], above 100 µM; in test [10] it was above 100 µM.
With `O=[N+]([O-])c1ccc(S(=O)(=O)Cc2ccccc2)c2nonc12`, the TGI in [1] was determined as 51.7 µM; in test [2], 43.1 µM; in test [3] it was 38.2 µM; in [4], 68 µM; in [5], 34.1 µM; in test [6], 64.2 µM. The TGI in test [7] was above 100 µM; in [8], 42.2 µM; in [9], 38.5 µM; in [10], 28.5 µM.
`CCCNc1nc2ccccc2c2c1S(=O)(=O)c1ccc(Cl)cc1C2=O`: the GI50 is 0.728 µM in test [1]; 1.77 µM in test [2]; 1.28 µM in test [3]; 1.37 µM in test [4]; 0.95 µM in test [5]; 0.345 µM in test [6]. Further, the GI50 in [7] is 1.67 µM; in test [8], 1.92 µM; in [9], 1.61 µM; in test [10], 0.648 µM. The TGI in test [1] was above 50 µM; in test [2], above 50 µM; in [3] it was above 50 µM; in test [4], above 50 µM; in test [5] it was above 50 µM; in test [6], 2.86 µM. The TGI was above 50 µM in test [7], above 50 µM in test [8], above 50 µM in test [9] and 3.24 µM in test [10].
As to `COc1cc2c3c(n(CCCN=[N+]=[N-])c(=O)c2cc1OC)-c1ccc(N(C)C)cc1C3=O`, the GI50 in test [1], in [2], in test [3], in test [4], in test [5] and in test [6] was above 100 µM throughout. Besides, the GI50 in test [7], in test [8], in test [9] and in test [10] was above 100 µM throughout. Besides, the TGI in test [1], in test [2], in test [3], in test [4], in [5] and in test [6] was above 100 µM throughout. The TGI in test [7], in test [8], in [9] and in [10] was above 100 µM each time.
`CSc1cccc(NC(=O)OC2CCCCCCCCCCC2)c1`: the TGI in [1] is above 100 µM; in test [2], 48.3 µM; in test [3], 35.1 µM; in [4] it was 64.5 µM; in test [5], 45.6 µM; in test [6] it was 54.4 µM. Besides, the TGI in [7] is 57.9 µM; in test [8] it was 39.4 µM; in test [9], above 100 µM; in [10] it was 33.2 µM.
In the case of `COc1cc(/C=C/C(=O)c2cccnc2Nc2ccc(F)cc2)cc(OC)c1OC`, the GI50 in test [1] was 2.28 µM; in test [2], 2.9 µM; in [3], 1.69 µM; in test [4], 2.37 µM; in [5] it was 3.81 µM; in test [6] it was 2.43 µM. Moreover, the GI50 in test [7] is 4.16 µM; in test [8] it was 2.52 µM; in test [9] it was 3.22 µM; in test [10], 3.23 µM. Also, the TGI in test [1] worked out at 5.95 µM; in test [2], 7.82 µM; in [3], 3.59 µM; in [4], 8.14 µM; in test [5], 19 µM; in [6], 8.07 µM. The TGI in test [7] is 69.4 µM; in [8], 5.26 µM; in test [9], 17.3 µM; in [10] it was above 100 µM.
Turning to `Cc1cccc2c(N)c3ccccc3nc12`, the GI50 was 0.67 µM in [1]; 0.854 µM in test [2]; 0.616 µM in test [3]; 1.32 µM in test [4]; 1.69 µM in [5]; 2.47 µM in test [6]. The GI50 in test [7] is 1.67 µM; in [8], 1.68 µM; in [9], 2.34 µM; in [10], 1.16 µM. The TGI in test [1] was found to be 10.4 µM; in test [2], 5.3 µM; in test [3] it was 3.66 µM; in test [4], 12.8 µM; in test [5], 11.7 µM; in test [6] it was 6.73 µM. Besides, the TGI is 10.4 µM in test [7], 3.84 µM in test [8], 6.53 µM in [9] and 12.7 µM in [10].
Regarding `O=C1NCCS(=O)(=O)/C1=C\C=C\c1cccc(C(F)(F)F)c1`, the GI50 in [1] is 1.56 µM; in test [2], 3.72 µM; in [3] it was 1.23 µM; in [4], 2.81 µM; in test [5], 4.84 µM; in test [6], 2.19 µM. Besides, the GI50 in test [7] is 3.71 µM; in test [8], 2.62 µM; in [9] it was 2.92 µM; in [10], 3.08 µM. Moreover, the TGI in test [1] is 5.29 µM; in test [2], 12.7 µM; in test [3], 2.61 µM; in test [4] it was 14.2 µM; in [5], 19.2 µM; in test [6], 8.31 µM. The TGI worked out at 15 µM in [7], 9.77 µM in [8], 11.3 µM in [9] and 12 µM in test [10].
Turning to `CCN(CC)CCSCCCNc1c2ccc(Cl)cc2nc2ccc(OC)cc12`, the GI50 in [1] was 0.433 µM; in test [2] it was 0.558 µM; in test [3], 0.337 µM; in test [4] it was 1.15 µM; in [5], 0.756 µM; in test [6], 1.3 µM. In addition, the GI50 is 1.13 µM in test [7], 2.06 µM in test [8], 1.84 µM in test [9] and 1.04 µM in test [10]. The TGI in test [1] was determined as 2.36 µM; in [2] it was 2.21 µM; in test [3], 1.34 µM; in test [4] it was 3.7 µM; in test [5], 3.03 µM; in test [6], 4.78 µM. Moreover, the TGI is 2.76 µM in test [7], 3.87 µM in test [8], 3.8 µM in test [9] and 3.48 µM in [10].
For the compound `NCCSCCc1ccccc1`, the TGI in test [1], in test [2], in test [3], in [4], in test [5] and in [6] was above 100 µM throughout. Moreover, the TGI in test [7], in [8], in test [9] and in [10] was above 100 µM in each case.
As to `Cc1c(Sc2ccccc2)[n+](=O)c2cc(Cl)c(Cl)cc2n1[O-]`, the GI50 is 53.7 µM in [1]; above 100 µM in test [2]; 18.4 µM in test [3]; above 100 µM in test [4]; 85.3 µM in test [5]; 51.7 µM in [6]. Further, the GI50 in test [7], in test [8], in test [9] and in test [10] was above 100 µM each time. Moreover, the TGI in test [1] was above 100 µM; in [2], above 100 µM; in [3], 36.7 µM; in test [4], above 100 µM; in test [5] it was above 100 µM; in [6], above 100 µM. Besides, the TGI in test [7], in test [8], in test [9] and in [10] was above 100 µM in each case.
Consider `N#Cc1cc(S(=O)(=O)Nc2nc3ccccc3s2)c(SCc2ccccc2)cc1Cl`, for which the GI50 in test [1] is 28.5 µM; in test [2] it was 24.5 µM; in test [3], 20.8 µM; in test [4], 30.6 µM; in [5], 34.4 µM; in test [6] it was 27.9 µM. Moreover, the GI50 in test [7] was 13.6 µM; in [8], 15.3 µM; in [9] it was 28.8 µM; in test [10] it was 19.2 µM. The TGI was 66.4 µM in [1]; 45.7 µM in test [2]; 48.2 µM in test [3]; above 100 µM in [4]; above 100 µM in [5]; above 100 µM in test [6]. Besides, the TGI in [7] came to 44.1 µM; in test [8], 36.8 µM; in [9], 87.8 µM; in [10], 41.5 µM.
Regarding `[Cl][Cd][Cl]`, the GI50 in test [1] is 52.2 µM; in test [2], 39.7 µM; in test [3], 24.8 µM; in test [4], 120 µM; in [5] it was 7.95 µM and 19.6 µM and 8.69 µM; in test [7] it was 76.4 µM. Also, the GI50 in test [8] is 16.4 µM and 8.88 µM; in [9], 17.9 µM and 11.6 µM; in [10], > 69 µM and 53 µM. In addition, the TGI is 150 µM in [1]; 93.1 µM in [2]; 75.9 µM in test [3]; 277 µM in test [4]; 36.1 µM and 23.7 µM in test [5]; 8.71 µM and 71.5 µM and 61.8 µM in [6]. Besides, the TGI was 155 µM in test [7]; 24.8 µM and 18.9 µM in test [8]; 34.6 µM and 30.4 µM in test [9]; 158 µM in test [10].
